According to patent US20260355189A1, “SMALL MOLECULE INHIBITORS OF NEUTROPHIL EXOCYTOSIS AND INFLAMMATION” (THE SCRIPPS RESEARCH INSTITUTE, priority 2022, published 2026):

What was measured:
[1] = test system: mouse neutrophils; assay: Isoluminol-dependent chemiluminescence assay of MPO secretion in purified mouse neutrophils; format: cell-based
Description: FIGS. 3A-C illustrate the effect of Inhibitors C1, C2, C4, C5, and C6 and comparator Nexinhib 20 (shown as “C20”) on MPO secretion of mouse neutrophils. FIG. 3A is a schematic representation of a cell-based secondary screening assay used to analyze the potency the potency of Rab27a-JFC1 inhibitors for their ability to decrease exocytosis of intact human neutrophil. This cell-based assay measures the secretion of myeloperoxidase (MPO) by human neutrophils using cell-impermeant isoluminol-dependent chemiluminescence in the absence of exogenous peroxidases.
(§1) Human neutrophils were isolated from normal donor's blood by Ficoll density centrifugation, as described previously (23). Murine bone marrow-derived neutrophils were isolated using a Percoll gradient fractionation system as described (24). A three-layer Percoll gradient was used (52%, 64%, and 72%), and neutrophils were isolated from the 64-72% interface, washed, and used in the assays.
Extracellular MPO-dependent reactive oxygen species (ROS) production was measured using the chemiluminescence reactions mediated by isoluminol (25). To this end, 3×10^5 neutrophils were resuspended in serum-free RPMI 1640 medium in the presence of cell-impermeant isoluminol, and reactions were carried out in the absence of exogenous peroxidase. Neutrophils were incubated in the presence of compounds or DMSO (0.5%) pin-tooled into 384-well plates in a […]. Control experiments were run in parallel in the presence of [COMPOUND LEFT OUT] (0.5 mM) to inhibit endogenous myeloperoxidase. After addition of stimuli (phorbol 12-myristate 13-acetate, “PMA”) or vehicle using liquid handling devices (BioRaptor FRD, Beckman Coulter), MPO-dependent chemiluminescence was continuously monitored for 30 min at 37 °C using a 2104 EnVision multilabel plate reader. For secretion assays, 0.5×10^6 neutrophils were incubated in RPMI 1640 medium in polystyrene 96-well plates in the presence of Inhibitors or dimethyl sulfoxide (DMSO) control for 1 hour and stimulated for the indicated times at 37 °C with PMA (0.1 μg/ml), GM-CSF (10 ng/ml), and fMLP (1 μM) or DMSO control. The cells were spun down, and supernatants were transferred to clean plates using plate filters to avoid contamination from cellular secretory proteins. MPO was measured by ELISA (R&D Systems).
Results: FIG. 3B is a graph showing the effect of Inhibitors C1, C2, C4, C5, and C6 on secreted MPO-dependent reaction using the isoluminol-dependent chemiluminescence assay in highly purified mouse neutrophils. On the graph of FIG. 3B, the pre-fix “NS” means “no stimuli” where the cells were treated with 10 μM C1, C2, C4, C5, C6, and C20 alone without any exocytosis stimuli. The pre-fix “PMA” means the cells were stimulated with PMA to secrete MPO and were treated with 10 μM of the designated Inhibitor. […] Mean % inhibition: C1, 76.74; C2, 59.85; C4, 70.9; C6, 62.4; C20, 99.22.

[2] = test system: wild-type neutrophils; assay: Secretion by wild-type neutrophils; format: cell-based
[3] = test system: human neutrophils (secretory vesicle marker CD11b); assay: Flow cytometry of secretory vesicle mobilization (CD11b) in human neutrophils; format: cell-based; conditions: 10 μM, 1 hour; GM-CSF + fMLP; relative to DMSO; N=15 donors; FIG. 7
Description: as §1
(§2) Method: The up-regulation of granule membrane-associated neutrophil markers at the plasma membrane was analyzed by flow cytometry. In these studies, flow cytometry analysis was performed by resuspension of 1×10^6 human neutrophils in phenol red-free RPMI 1640 medium, treated with a 10 μM solution of Inhibitors C1, C2, C4, C5, and C6 and Nexinhib 20 (C20) or DMSO control for 1 hour, and stimulated with physiological agonists GM-CSF (10 ng/ml) for 30 min followed by the addition of fMLP (1 μM) to induce degranulation or left untreated at 37 °C (non-stimulated, NS). The reactions were stopped by transferring the samples to ice and immediately spinning down the cells to initiate blocking and staining. To analyze the plasma membrane expression of plasma membrane markers, the cells were blocked in ice-cold PBS containing 1% BSA and stained with phycoerythrin (PE)-, FITC-, or Alexa647-conjugated anti-human CD63, CD66b, MMP9, and CD11b antibodies that detect extracellular epitopes of these markers. The cells were then washed and fixed in 1% paraformaldehyde in PBS. Samples were analyzed using a NovoCyte flow cytometer, and the data were processed using FlowJo software.

[4] = test system: human neutrophils (Gelatinase granule cargo MMP9); assay: Flow cytometry of gelatinase granule exocytosis (MMP9) in human neutrophils; format: cell-based; conditions: 1 hour, GM-CSF + fMLP; for inhibition at 10 µM: Homo sapiens, Neutrophil, N=12 donors, FIG. 6, read-out: % Inhibition of MMP9 up-regulation; for Inhibition in MMP9 experiment (words; printed as CD66b up-regulation): 10 μM, relative to DMSO, FIG. 6
Description: as §1, §2

[5] = test system: neutrophils that carry the NLRP3 A350V mutation; assay: Secretion by bone-marrow-derived neutrophils from Nlrp3 A350V (CAPS) mice; format: cell-based, mouse; conditions: 10 μM, 1 hour, LPS and fMLF; for Mobilization of azurophilic granules (MPO) / Mobilization of gelatinase granules (MMP9) / Mobilization of CD63: FIG. 8; for Neutrophil secretion (hyperactivation of secretion): Nlrp3 A350V and wild type, FIG. 8A-C; for Mobilization of CD63: murine neutrophils
Description: FIG. 8A-C. […] A, gelatinase (MMP9) granules; B, azurophilic granules (MPO, myeloperoxidase); C, CD63 (an endolysosomal marker). […] Subsequently, neutrophils were either stimulated with lipopolisacharide (LPS) and the chemotatctic peptide fMLF or left untreated. C20 (Nexinhib20 is used as control). Mean±SEM, n=3. In this and subsequent figures, p<0.05; **, p<0.01; ***, p<0.001; ****, p<0.0001, ANOVA.
These compounds are now tested using neutrophils from a mouse model of Cryopyrin-Associated Periodic Syndrome (CAPS), a systemic inflammatory disease in humans, caused by gain-of-function mutations of the NOD-like receptor family member, cryopirin, also known as NLRP3 (J Cin Immunol 39, 277-286, doi:10.1007/s10875-019-00638-z (2019)). Heterozygous NLRP3 mutations lead to hyper-responsive NLRP3 inflammasome function characterized by increased caspase-1 (Casp1) activation and […], and is observed in patients and in animal models with NLRP3-gain-of-function mutations. […] Subsequently, neutrophils were either stimulated with LPS and the chemotatctic peptide fMLF or left untreated.

[6] = test system: human neutrophils (specific granule marker CD66b); assay: Flow cytometry of specific granule exocytosis (CD66b) in human neutrophils; format: cell-based; conditions: 1 hour, GM-CSF + fMLP; for Inhibition of CD66b up-regulation: relative to DMSO; for inhibition at 10 µM: Homo sapiens, Neutrophil, FIG. 5, read-out: % inhibition of CD66b up-regulation
Description: as §1, §2

[7] = test system: human neutrophils (azurophilic granule marker CD63); assay: Flow cytometry of azurophilic granule mobilization (CD63) in human neutrophils; format: cell-based; conditions: 1 hour, GM-CSF + fMLP; for Inhibition of CD63 up-regulation: 10 μM, relative to DMSO, FIG. 4; for inhibition at 10 µM: Homo sapiens, Neutrophil, N=15 donors, FIG. 4, read-out: Mean % inhibition of CD63 up-regulation
Description: as §1, §2

[8] = 10 μM inhibitor, PMA stimulated, FIG. 3B
[9] = Mus musculus, Neutrophil, 10 μM inhibitor, PMA stimulated, FIG. 3B

SMILES | Inhibition of exocytosis vs DMSO control [1, 8] | inhibition at 10 µM [1, 9] | Inhibitory effect on wild-type neutrophils [2] | Release of CD11b+ vesicles / CD11b upregulation [3] | inhibition at 10 µM [4] | Mobilization of azurophilic granules (MPO) [5] | Mobilization of gelatinase granules (MMP9) [5] | Neutrophil secretion (hyperactivation of secretion) [5] | Mobilization of CD63 [5] | Inhibition of CD66b up-regulation ([6]; 10 μM, FIG. 5) | inhibition at 10 µM ([6]; N=12 donors) | IC50 ([1]; Mus musculus, Neutrophil, dose-response analysis, FIG. 3C) | Inhibition in MMP9 experiment (words; printed as CD66b up-regulation) [4] | Neutrophil secretion (hyperactivation of secretion) ([5]; listed as C1) | Neutrophil secretion (hyperactivation of secretion) ([5]; listed as NEIa-C1) | Inhibition of CD63 up-regulation [7] | inhibition at 10 µM [7] | Mean % inhibition of MPO-dependent chemiluminescence (MPO secretion) [1, 8] | % inhibition of CD66b up-regulation ([6]; 10 μM, N=12 donors, FIG. 5)
O=C(Nc1ccccc1)/C(=C/c1cccc([N+](=O)[O-])c1)n1cncn1 [152 (C4)] | significant inhibition of exocytosis | 70.9% | selective inhibitory effect on wild-type neutrophils | unaffected | 16.4% | inhibit the mobilization | inhibit the mobilization of gelatinase granules (MMP9) | inhibit the hyperactivation of secretion | significantly inhibited the mobilization of CD63 | marked and significant inhibition of CD66b up-regulation | 48.1% | – | – | – | – | – | – | – | –
CN(C)c1cccc(/C=C(/C(=O)C(C)(C)C)n2cncn2)c1 [150 (C1)] | significant inhibition of exocytosis | 76.7% | selective inhibitory effect on wild-type neutrophils | unaffected | 55.3% | inhibit the mobilization | inhibit the mobilization of gelatinase granules (MMP9) | – | significantly inhibited the mobilization of CD63 | marked and significant inhibition of CD66b up-regulation | 57.6% | 860 nM | marked inhibition of CD66b up-regulation | inhibit the hyperactivation of secretion | significantly inhibit secretion | marked and significant inhibition of CD63 up-regulation | 93.1% | – | –
CNC(=O)/C(=C/c1cccc([N+](=O)[O-])c1)n1cncn1 [153 (C5)] | – | – | – | unaffected | – | – | – | – | – | – | – | – | – | – | – | – | – | – | –
CC(C)(C)C(=O)/C(=C/c1cccc([N+](=O)[O-])c1)n1cncn1 [Nexinhib20, reference compound] | – | – | – | significantly inhibited CD11b upregulation at the plasma membrane (to levels lower than basal controls) | – | – | – | – | – | marked and significant inhibition of CD66b up-regulation | – | – | marked inhibition of CD66b up-regulation | – | – | marked and significant inhibition of CD63 up-regulation | – | 99.22% | 100%
CC(C)(C)C(=O)C(=Cc1cccc(O)c1)n1cncn1 [151 (C2)] | significant inhibition of exocytosis | 59.9% | selective inhibitory effect on wild-type neutrophils | unaffected | 26.5% | – | – | – | – | marked and significant inhibition of CD66b up-regulation | 35.8% | – | marked inhibition of CD66b up-regulation | – | – | marked and significant inhibition of CD63 up-regulation | 59.5% | – | –
